Data published in EP4700022A1, “CYP11A1 INHIBITORS AND USE THEREOF” (Xizang Haisco Pharmaceutical Co., Ltd., priority 2023, dated 2024).

Legend:
[1] = Pharmacokinetic test in mice; format: in vivo; details: mouse, male ICR mice, plasma; for Vd: read-out: Vdss
Experimental: 4.1. Experimental animals: Male ICR mice, 20-25 g, 6 mice/compound, purchased from Chengdu Dossy Experimental Animals Co., Ltd.
4.2 Experimental design: on the day of the experiment, the ICR mice were randomly grouped according to their body weights. […] Table 5. Administration information
vehicle for intravenous administration: 5% DMA+5% HS-15+90% NS; vehicle for intragastric administration: 0.5% MC
Before and after administration, 0.06 mL of blood was taken from the orbit under isoflurane anesthesia and placed in an EDTAK2 centrifuge tube. The tube was centrifuged at 5000 rpm at 4°C for 10 min, and plasma was collected. […] Before analysis and detection, all samples were stored at -80°C, and the samples were quantitatively analyzed by LC-MS/MS. Table 6. Pharmacokinetic parameters of test compounds in plasma of mice

[2] = system: testosterone level in NCI-H295R cells; test: cells; format: cell-based; details: Homo sapiens, 72 h; for IC50: read-out: IC50/nM; for inhibition at 0.1 µM: read-out: Testosterone level in H295R (Elisa) inh.% 100 nM; for inhibition at 1 µM: read-out: Testosterone level in H295R (Elisa) inh.% 1000 nM
Experimental: 1. The purpose of the experimental study was intended to detect the testosterone level in the NCI-H295R cells by adopting the Enzyme linked immunosorbent assay (ELISA), so as to evaluate the inhibitory effects of the compounds on the testosterone level in the NCI-H295R cells. The H295R cells were purchased from ATCC, the cell complete medium contained DMEM: F12+ 10% FBS +0.00625 mg/ml insulin +0.00625 mg/ml transferrin+6.25 ng/ml selenium +1.25 mg/ml BSA+0.00535 mg/ml linoleic acid, and the cells were cultured in a 37°C, 5% CO2 incubator. The cells in the exponential growth phase were collected, and cultured in a cytokine-free medium (phenol red 1640-free +1% PS+10% css FBS+1.25 mg/ml BSA +0.00625 mg/ml insulin + 0.00625 mg/ml transferrin+6.25 ng/ml selenium+0.00535 mg/ml linoleic acid) for 3 days. The cells in the exponential growth phase were collected on the third day. The cell suspension was adjusted with a cytokine-free medium to a corresponding concentration and plated at 60000 cells/well, with the volume being 90 µL/well. Subsequently, 10 µL of the compounds at different concentrations was added and the plate was incubated in a CO2 incubator for 3 days. After the incubation was completed, according to the operation instructions for testosterone Elisa kit (Beyotime, PT872), 50 µL of the cell culture supernatant was collected from each well and centrifuged at 500 g for 5 min at room temperature and then the resulting supernatant was collected. The samples were added to the corresponding wells at 25 µl/well, and then formulated horseradish peroxidase labeled testosterone was added at 75 µl/well. The mixture was fully mixed for 10 seconds. The reaction wells were sealed with a plate-sealing film (white) and the mixture was incubated at room temperature in the dark for 120 min. The plate was washed 3 times with a volume of 300 µl per well, and then placed onto thick absorbent paper and dried. Chromogenic reagent TMB solution was added at 100 µl/well. The reaction wells were sealed with a plate-sealing film (white) and the mixture was incubated at room temperature in the dark for 15-20 min. Subsequently, a termination solution was added at 50 µl/well, and after the mixture was fully mixed, the absorbance value OD450 was immediately measured. The absorbance readings were processed using Graphpad Prim 8.0 software and S-shaped concentration curves were plotted and the IC50 values were calculated using a four-parameter non-linear regression model. The results were processed according to formula (1), the inhibition rate of the compound at different concentrations was calculated, and the IC50 value of the compound with an inhibition rate of 50% was calculated using Graphpad Prim 8.0 software, wherein RLU compound was the readout of the treated group, and RLU control was the average value of the solvent control group. Inhibition rate% = 100-RLUcompound /RLUcontrol × 100 [formula] Table 1. Inhibitory activity on testosterone level in NCI-H295R cells

[3] = Pharmacokinetic test in rats; format: in vivo; details: rat, male SD rats, plasma; for Vd: read-out: Vdss
Experimental: 3.1 Experimental animals: Male SD rats (about 220 g, 6-8 weeks old, 6 rats/compound), purchased from Chengdu Dossy Experimental Animals Co., Ltd.
3.2 Experimental design: On the day of the experiment, the SD rats were randomly grouped by body weight. […] Table 3. Administration information
Before and after the administration, 0.1 ml of blood was taken from the orbit of the animals under isoflurane anesthesia and placed in an EDTAK2 centrifuge tube. The blood was centrifuged at 5000 rpm and 4°C for 10 min to collect plasma. […] Before analysis and detection, all samples were stored at -80°C. Table 4. Pharmacokinetic parameters of test compounds in plasma of rats

[4] = po, intragastric administration (10 mg/kg)
[5] = intravenous administration (2.5 mg/kg)

| SMILES | inhibition at 0.1 µM [2] | inhibition at 1 µM [2] | further results |
| --- | --- | --- | --- |
| CS(=O)(=O)N1CCC(CCOc2cc(CN3Cc4ccc(C5CC5)cc4C3)ccn2)CC1 [Compound 50] | 51.7% | 89.4% | AUC(0-t) [1, 4]: 7780 ng·h/mL; half-life [1, 4]: 2.73 h; AUC(0-t) [1, 5]: 2360 ng·h/mL; clearance [1, 5]: 17.3 mL/min/kg; half-life [1, 5]: 3 h; Vd [1, 5]: 3.37 L/kg; IC50 [2]: 130 nM |
| N#Cc1cc(CN2Cc3ccc(C(F)(F)F)cc3C2)cc2cc([C@H]3CC[C@H](NC(=O)C4CC4)CC3)oc12 [Compound 69] | 79% | 80% |  |
| COc1cc(CN2Cc3ccc(C(F)(F)F)cc3C2)cc2cc(C3CCN(C(=O)OC4CC4)CC3)oc12 [Compound 54] | 59.1% | 78.4% | AUC(0-t) [3, 4]: 5840 ng·h/mL; half-life [3, 4]: 7.74 h; AUC(0-t) [3, 5]: 3560 ng·h/mL; clearance [3, 5]: 10.3 mL/min/kg; half-life [3, 5]: 10.3 h; Vd [3, 5]: 6.41 L/kg |
| CS(=O)(=O)N1CC(OC(=O)N2CCC(COc3ccc(CN4Cc5ccc(C(F)(F)F)cc5C4)c4c3S(=O)(=O)CC4)CC2)C1 [Compound 39] | 55.8% | 74.6% |  |
| CS(=O)(=O)N1CCC(CCn2ccc(CN3Cc4ccc(C5CC5)cc4C3)cc2=O)CC1 [Compound 16] | 51.7% | 89.4% |  |
| O=C(N[C@H]1CC[C@H](CCOc2cc(CN3Cc4ccc(C(F)(F)F)cc4C3)ccn2)CC1)OC1CC1 [Compound 51] | 74.4% | 78.5% | AUC(0-t) [3, 4]: 13600 ng·h/mL; half-life [3, 4]: 9.63 h; AUC(0-t) [3, 5]: 4000 ng·h/mL; clearance [3, 5]: 9.32 mL/min/kg; half-life [3, 5]: 8.52 h; Vd [3, 5]: 4.58 L/kg |
| O=C(N[C@H]1CC[C@H](c2cc3oc(CN4Cc5ccc(C(F)(F)F)cc5C4)cc(=O)c3o2)CC1)C1CC(F)(F)C1 [Compound 72] | 81% | 88% |  |
| O=C(OC1CC1)N1CCC(COc2ccc(CN3Cc4ccc(C(F)(F)F)cc4C3)c3ccc(F)nc23)CC1 [Compound 36] | 56.8% | 62% |  |
| O=C(CC(F)(F)F)N[C@H]1CC[C@H](CCOc2cc(CN3Cc4ccc(C(F)(F)F)cc4C3)ccn2)CC1 [Compound 76] | 70% | 78% |  |
| [2H]C([2H])([2H])C(=O)N[C@H]1CC[C@H](Cc2cc3oc(CN4Cc5ccc(C(F)(F)F)cc5C4)cc(=O)c3o2)CC1 [Compound 67] | 52% | 72% |  |
| O=C(OC1CC1)N1CCC2(CC1)CC(Oc1cc(CN3Cc4ccc(C(F)(F)F)cc4C3)ccn1)C2 [Compound 48] | 77.5% | 78.2% |  |
| O=C(N[C@H]1CC[C@H](CCOc2cc(CN3Cc4ccc(C(F)(F)F)cc4C3)ccn2)CC1)[C@H]1CC1(F)F [Compound 70] | 68.9% | 76.3% |  |
| O=C(OC1CC1)N1CCC(CCOc2cc(CN3Cc4ccc(C(F)(F)F)cc4C3)ccn2)CC1 [Compound 40] |  |  | AUC(0-t) [3, 4]: 4210 ng·h/mL; half-life [3, 4]: 11.1 h; AUC(0-t) [3, 5]: 1950 ng·h/mL; clearance [3, 5]: 19.1 mL/min/kg; half-life [3, 5]: 9.77 h; Vd [3, 5]: 9.21 L/kg; IC50 [2]: 77 nM |
| O=C(N[C@H]1CC[C@H](CCOc2cc(CN3Cc4ccc(C5CC5)cc4C3)ccn2)CC1)C1CC1 [Compound 60] |  |  | AUC(0-t) [3, 4]: 27100 ng·h/mL; half-life [3, 4]: 2.36 h; AUC(0-t) [3, 5]: 6080 ng·h/mL; clearance [3, 5]: 6.8 mL/min/kg; half-life [3, 5]: 1.75 h; Vd [3, 5]: 0.951 L/kg |
| CS(=O)(=O)N1CCC(C2=COc3cc(CN4Cc5ccc(C(F)(F)F)cc5C4)ccc3O2)CC1 [Compound 84] | 74% | 83% | IC50 [2]: 38 nM |
| O=C(OC1CC1)N1CCC(Cc2cc3oc(CN4Cc5ccc(C(F)(F)F)cc5C4)cc(=O)c3o2)CC1 [Compound 42] | 76.9% | 82.6% |  |
| CS(=O)(=O)N1CCC(c2cc3oc(CN4Cc5ccc(C(F)(F)F)cc5C4)cc(=O)c3o2)CC1 [Compound 30] | 59.1% | 80.9% | IC50 [2]: 35.3 nM |
| CS(=O)(=O)N1CCC(CCOc2cc(CN3Cc4ccccc4C3)ccn2)CC1 [Compound 10] |  | 85.4% | IC50 [2]: 81.9 nM |
| COc1nc(CN2Cc3ccc(C(F)(F)F)cc3C2)ccc1OCC1CCN(C(=O)C2CC(F)(F)C2)CC1 [Compound 75] | 76.2% | 90.4% |  |
| CS(=O)(=O)N1CC(OC(=O)N2CCC3(CC2)CC(Oc2cc(CN4Cc5ccc(C(F)(F)F)cc5C4)ccn2)C3)C1 [Compound 38] | 68.2% | 81% | AUC(0-t) [1, 4]: 13500 ng·h/mL; half-life [1, 4]: 3.65 h; AUC(0-t) [1, 5]: 4360 ng·h/mL; clearance [1, 5]: 9.45 mL/min/kg; half-life [1, 5]: 4.11 h; Vd [1, 5]: 2.78 L/kg |
| O=C(OC1CC1)N1CCC(/C=C/c2coc(CN3Cc4cc5c(cc4C3)CCC5)cc2=O)CC1 [Compound 43] | 75.6% | 77.8% |  |
| CS(=O)(=O)N1CC(OC(=O)N2CCC(CCOc3cc(CN4Cc5ccsc5C4)ccn3)CC2)C1 [Compound 41] | 51.5% | 67.9% |  |
| O=C(OC1CC1)N1CCC(CCOc2ccnc(CN3Cc4ccc(C(F)(F)F)cc4C3)c2)CC1 [Compound 59] | 60% | 76% |  |
| O=C(N[C@H]1CC[C@H](Cc2cc3oc(CN4Cc5ccc(C(F)(F)F)cc5C4)cc(=O)c3o2)CC1)C1CC1 [Compound 66] | 54.8% | 76.7% |  |
| CS(=O)(=O)N1CC(OC(=O)N2CCC(COc3ccc(CN4Cc5ccc(C(F)(F)F)cc5C4)c4c3OCCO4)CC2)C1 [Compound 37] | 87.1% | 77% |  |
| CS(=O)(=O)N1CC(OC(=O)N2CCC(CCOc3cc(CN4Cc5ccc(C(F)(F)F)cc5C4)ccn3)CC2)C1 [Compound 49] | 57.7% | 65.2% |  |
| CS(=O)(=O)N1CCC(COc2ccc(CN3Cc4ccccc4C3)c3cccnc23)CC1 [Compound 4] | 81.5% | 89.2% |  |
| N#Cc1cc(CN2Cc3ccc(C(F)(F)F)cc3C2)cc2cc(C3CCN(C(=O)OC4CC4)CC3)oc12 [Compound 53] | 72.5% | 85.5% | AUC(0-t) [3, 4]: 6750 ng·h/mL; half-life [3, 4]: 8.13 h; AUC(0-t) [3, 5]: 3110 ng·h/mL; clearance [3, 5]: 11 mL/min/kg; half-life [3, 5]: 13.2 h; Vd [3, 5]: 8.06 L/kg |
